Measurements taken from patent publication US11130766B2, “Deuterated thienopiperidine derivatives, manufacturing method, and application thereof” (JIANGSU TASLY DIYI PHARMACEUTICAL CO., LTD., priority 2015, dated 2021).
Read-outs that look alike come from different tables or passages of the source. Marks after values point to notes of the source that are not given here.

Columns and labels:
esterase [1] = test: Esterase hydrolysis rates of TSD-8 and clopidogrel bisulfate, in vitro incubation in rat whole blood; type: in vitro ADME; parameters: sample test results (concentration) Num. 1 / sample test results (concentration) Num. 2 / sample test results (concentration) Num. 3 / sample test results (concentration) Mean: unit not given here; settings: rat whole blood, 37° C., 30 μg/mL
[2] = test system: Rat Arteriovenous Thrombus Loop Model; settings: SD rat, 10 mg/kg oral gavage, 4 h after administration, 15 min circulation
Source text: genus, strain: SD rat, • Provider: Slac • Weight: 250-350 g • Sex: male • Animal number: 30
Apparatus and Materials • Swab, dry tampon, alcohol pad, anerdian tampon. • Surgical scissor, ophthalmic forceps, hemostatic forceps, microsurgical scissor, microsurgical forceps, artery clamps. • 3-0 surgical suture, thick PE tube (I.D.*O.D.=1.14 mm*1.63 mm, 8 cm long), think PE tube (I.D.*O.D.=0.72 mm*1.22 mm, 6 cm long). • Surgical board, binding rope, timer, precise electronic balance, weighing paper. • Syringe, normal saline.
7. Experimental Method • After arrival, the animals were let adapt to the environment for 1 week and fasted for 16 hours prior to the test. • The arteriovenous blood loop circulation was started 2 h after oral administration of the test compounds and 4 h after oral administration of clopidogrel. • The rats were anesthetized with pentobarbital sodium (50 mg/kg, ip) 15 min before the arteriovenous blood loop circulation was started. • The left external jugular vein and the right carotid artery were separated and inserted with thin PE tubes respectively. • Two PE tubes were connected with another thick PE tube with a length of 8 cm to form a circulation passage. There's a 6 cm surgical suture (3-0) in the thick PE tube. • 15 min after the circulation passage was opened, the blood flow was blocked, the filament was taken out and weighed after the blood was sucked out. The thrombus weight was obtained after subtraction of the weight of the filament itself.

esterase [3] = settings: rat whole blood, 37° C., 30 μg/mL
Protocol: The hydrolysis rates of formula TSD-6 and clopidogrel bisulfate in the rat whole blood were determined by employing the in vitro incubation method.
3 mL of the rat fresh whole blood was taken and placed in a glass test tube. 30 μg/mL of formula TSD-6 and clopidogrel bisulfate (prepared with saline) were added, with 3 parallel tests for each group. The test tubes were shocked at a constant temperature of 37° C., 100 μL of the mixture was taken out at fixed time points of 10 min, 20 min, 30 min, 40 min, 50 min, 60 min, 70 min, 80 min, 90 min, 100 min, 110 min, and 120 min, into which 900 μL of methanol was added to stop the reaction immediately, then 100 μL methanol/water (1:1, v/v) and 100 μL internal standard (diazepam, 100 ng/mL) were added sequentially. The mixture was centrifuged at 13000 rpm at low temperature for 10 min, the supernatant was transferred into another EP tube, and 20 μL of the supernatant was taken for sample injection.

[4] = test system: ADP induced platelet aggregation; test: ADP induced platelet aggregation, maximum aggregation rate after administration to rats; type: in vivo, Wistar male rats; settings: ADP induced, rats, 3 mg/kg, blood drawn 2 hours after administration
Protocol: Addition of small dose of ADP (concentration less than 0.9 μmol/L) into the platelet suspension could lead to rapid platelet aggregation, followed by quick disaggregation; if moderate dose of ADP (about 1.0 μmol/L) was added, then the second irreversible aggregation phase appeared not long after the end of the first aggregation phase and the disaggregation. The maximum aggregation rate of the irreversible aggregation phase was used to evaluate the effect of the test samples on the function of blood coagulation.
Animals: Wistar male rats, weighing 230-250 g, were purchased from Vital River Laboratory Animal Technology Co., Ltd.
Reagent: ADP, Sigma Corporation.
Test samples: 16 test samples were provided by the Tasly Group; referred to China patent application 201310428052.4 for manufacturing method of TSC-1˜4 and TSC-6˜9.
Dose of administration: the test samples were suspended with 0.25% CMC, administered 3 mg/kg weight, volume of administration: 2 mL.
2 Hours after administration, the rats were anesthetized with pentobarbital sodium, and blood was drawn from the abdominal aorta, anticoagulated with sodium citrate with a ratio of 1:9, and centrifuged to obtain the platelet-rich plasma and platelet-poor plasma, with the mixed ratio of the platelet-poor plasma to platelet-rich plasma=3:1.

Rat Tail Bleeding Model = settings: SD rat, 10 mg/kg oral gavage, 4 h after administration
Protocol: genus, strain SD rat, • Provider: Slac • Weight: 250-350 g • Sex: male • Animal number: 30
Experimental Method: • The animals were allowed adapt to the environment after arrival for 1 week and fasted for 16 hours prior to the experiment. • The tail bleeding time started to be recorded 2 h after oral administration of the test compounds and 4 h after oral administration of clopidogrel. • The rats were anesthetized with pentobarbital sodium (50 mg/kg, ip) 10 min prior to the recording of the tail bleeding time, after the rat was completely anesthetized and reaching the detection time, the tail was cut at 1.3 mm from the rat tail-tip with a scissor and perpendicularly immerged into a saline at 37° C. Timing recording was not started until the blood flow appeared. • The timing recording was stopped when the bleeding time interval was longer than 20 seconds. The maximum observation time for the blood flow was set for 40 minutes. If it was longer than 40 minutes, the timing recording was stopped and the time was recorded as 40 minutes.

SMILES: COC(=O)[C@H](c1ccccc1Cl)N1CCc2sccc2C1 [clopidogrel, Clopidogrel, reference compound]
- time at which the concentration in the whole blood was lower than the quantitative lower limit (esterase [1]): around 50 min
- sample test results (concentration) Mean (esterase [1]; 10 min): 199.50
- sample test results (concentration) Num. 1 (esterase [1]; 10 min): 232
- sample test results (concentration) Num. 3 (esterase [1]; 10 min): 167
- sample test results (concentration) Mean (esterase [1]; 20 min): 90.53
- sample test results (concentration) Num. 1 (esterase [1]; 20 min): 64.1
- sample test results (concentration) Num. 2 (esterase [1]; 20 min): 131
- sample test results (concentration) Num. 3 (esterase [1]; 20 min): 76.5
- sample test results (concentration) Mean (esterase [1]; 30 min): 34.07
- sample test results (concentration) Num. 1 (esterase [1]; 30 min): 20.6
- sample test results (concentration) Num. 2 (esterase [1]; 30 min): 53
- sample test results (concentration) Num. 3 (esterase [1]; 30 min): 28.6
- sample test results (concentration) Mean (esterase [1]; 40 min): 11.82
- sample test results (concentration) Num. 1 (esterase [1]; 40 min): 6.46
- sample test results (concentration) Num. 2 (esterase [1]; 40 min): 14.3
- sample test results (concentration) Num. 3 (esterase [1]; 40 min): 14.7
- sample test results (concentration) Mean (esterase [1]; 50 min): 0.62
- sample test results (concentration) Num. 1 (esterase [1]; 50 min): 0.479
- sample test results (concentration) Num. 2 (esterase [1]; 50 min): 1.01
- sample test results (concentration) Num. 3 (esterase [1]; 50 min): 0.359
- sample test results (concentration) Mean (esterase [1]; 60 min): 0.53
- sample test results (concentration) Num. 1 (esterase [1]; 60 min): 0.347
- sample test results (concentration) Num. 2 (esterase [1]; 60 min): 1.24
- sample test results (concentration) Num. 3 (esterase [1]; 60 min): 0
- sample test results (concentration) Mean (esterase [1]; 90 min): 0.00
- sample test results (concentration) Num. 1 (esterase [1]; 90 min): 0
- sample test results (concentration) Num. 2 (esterase [1]; 90 min): 0
- sample test results (concentration) Num. 3 (esterase [1]; 90 min): 0
- sample test results (concentration) Mean (esterase [1]; 100 min): 0.00
- sample test results (concentration) Num. 1 (esterase [1]; 100 min): 0
- sample test results (concentration) Num. 2 (esterase [1]; 100 min): 0
- sample test results (concentration) Num. 3 (esterase [1]; 100 min): 0
- sample test results (concentration) Mean (esterase [1]; 110 min): 0.00
- sample test results (concentration) Num. 1 (esterase [1]; 110 min): 0
- sample test results (concentration) Num. 2 (esterase [1]; 110 min): 0
- sample test results (concentration) Num. 3 (esterase [1]; 110 min): 0
- sample test results (concentration) Mean (esterase [1]; 120 min): 0.00
- sample test results (concentration) Num. 1 (esterase [1]; 120 min): 0
- sample test results (concentration) Num. 2 (esterase [1]; 120 min): 0
- sample test results (concentration) Num. 3 (esterase [1]; 120 min): 0
- Thrombus (mg) [2]: 20.1** mg
- time at which the concentration in the whole blood was lower than the quantitative lower limit (esterase [3]): around 50 min
- sample test results (concentration) Mean (esterase [3]; 10 min): 211.0
- sample test results (concentration) Num. 1 (esterase [3]; 10 min): 238
- sample test results (concentration) Num. 2 (esterase [3]; 10 min): 221
- sample test results (concentration) Num. 3 (esterase [3]; 10 min): 174
- sample test results (concentration) Mean (esterase [3]; 20 min): 89.6
- sample test results (concentration) Num. 1 (esterase [3]; 20 min): 66.2
- sample test results (concentration) Num. 2 (esterase [3]; 20 min): 128
- sample test results (concentration) Num. 3 (esterase [3]; 20 min): 74.7
- sample test results (concentration) Mean (esterase [3]; 30 min): 35.1
- sample test results (concentration) Num. 1 (esterase [3]; 30 min): 24.1
- sample test results (concentration) Num. 2 (esterase [3]; 30 min): 57.2
- sample test results (concentration) Num. 3 (esterase [3]; 30 min): 24.1
- sample test results (concentration) Mean (esterase [3]; 40 min): 11.2
- sample test results (concentration) Num. 1 (esterase [3]; 40 min): 6.27
- sample test results (concentration) Num. 2 (esterase [3]; 40 min): 15.1
- sample test results (concentration) Num. 3 (esterase [3]; 40 min): 19.3
- sample test results (concentration) Mean (esterase [3]; 50 min): 0.70
- sample test results (concentration) Num. 1 (esterase [3]; 50 min): 0.449
- sample test results (concentration) Num. 2 (esterase [3]; 50 min): 1.12
- sample test results (concentration) Num. 3 (esterase [3]; 50 min): 0.518
- sample test results (concentration) Mean (esterase [3]; 60 min): 0.62
- sample test results (concentration) Num. 1 (esterase [3]; 60 min): 0.417
- sample test results (concentration) Num. 2 (esterase [3]; 60 min): 1.45
- sample test results (concentration) Num. 3 (esterase [3]; 60 min): 0
- sample test results (concentration) Mean (esterase [3]; 90 min): 0
- sample test results (concentration) Num. 1 (esterase [3]; 90 min): 0
- sample test results (concentration) Num. 2 (esterase [3]; 90 min): 0
- sample test results (concentration) Num. 3 (esterase [3]; 90 min): 0
- sample test results (concentration) Mean (esterase [3]; 100 min): 0
- sample test results (concentration) Num. 1 (esterase [3]; 100 min): 0
- sample test results (concentration) Num. 2 (esterase [3]; 100 min): 0
- sample test results (concentration) Num. 3 (esterase [3]; 100 min): 0
- sample test results (concentration) Mean (esterase [3]; 110 min): 0
- sample test results (concentration) Num. 1 (esterase [3]; 110 min): 0
- sample test results (concentration) Num. 2 (esterase [3]; 110 min): 0
- sample test results (concentration) Num. 3 (esterase [3]; 110 min): 0
- sample test results (concentration) Mean (esterase [3]; 120 min): 0
- sample test results (concentration) Num. 1 (esterase [3]; 120 min): 0
- sample test results (concentration) Num. 2 (esterase [3]; 120 min): 0
- sample test results (concentration) Num. 3 (esterase [3]; 120 min): 0
- Maximum Platelet Aggregation Rate [4]: 46.77 ± 8.28
- Tail Bleeding Time (s) (Rat Tail Bleeding Model): 1896*** s
